# Data: patent publication EP0386076B1, “PHOSPHORYLED DERIVATIVES OF CARDIODILATINE/ANF PEPTIDES” (FORSSMANN, Wolf-Georg, Prof. Dr. med., priority 1987, dated 1993)
# Ends that are not written are not given here.
# Columns and labels:
# [1] = tested on: Muskelstreifen von Kaninchenaorta; experiment: Relaxation of norepinephrine-precontracted rabbit aorta muscle strips in an organ bath; design: species or system Neuseeland-Kaninchen
# Text: Muskelstreifen von Kaninchenaorta wurden zunächst mit einer Lösung von Norepinephrin (10⁻⁷ M) kontrahiert. Nachdem sich konstante Bedingungen eingestellt hatten, wurden die Peptide hinzugefügt (Position des Pfeils).
# Die Abbildung 6 zeigt die Reaktion von Kaninchenaorta-Muskelstreifen auf die schrittweise Zugabe von nicht phosphoryliertem, phosphoryliertem und danach wieder nicht phosphoryliertem Alpha-hANaP (CDD-28). Die Verbindungen wurden jeweils so zugegeben, daß sie im Untersuchungsbad in einer Endkonzentration von 0,3 x 10⁻⁹ M vorlagen.
# Aortae von Neuseeland-Kaninchen wurden präpariert. Die Muskelspannung wurde an Muskelstreifen in einem Organbad, enthaltend physiologische Kochsalzlösung, gemessen. Die Streifen wurden vorkontrahiert mit einer Lösung von 10⁻⁶ M Norepinephrin, danach bei vollständiger Relaxation. Für den Assay wurde eine weitere Kontraktion mit 10⁻⁷ M Norepinephrin ausgelöst. Nachdem konstante Kontraktionsbedingungen erreicht waren, wurden die Peptide appliziert.
# Zur Kontrolle wurde nicht phosphoryliertes Alpha-hANaP unter gleichen Bedingungen inkubiert, jedoch ohne Anwesenheit von ATP. Phosphoryliertes und nicht phosphoryliertes Alpha-hANaP wurde zu den vorkontrahierten Kaninchenaorta-Muskelstreifen gegeben, so daß sie in einer Endkonzentration von 0,3 x 10⁻⁹ M vorlagen. […]
# [2] = tested on: c-AMP-abhängiger Proteinkinase; conditions: peptide as substrate of c-AMP-abhängiger Proteinkinase; read-out: Michaeliskonstante Km; cited from earlier work
Substance,"relatives Relaxationsvermögen ([1]; Abbildung 7, phosphorylated versus non-phosphorylated form at corresponding concentration)","Relaxationsaktivität ([1]; Beispiel 6, tested analogously to Beispiel 5, several concentrations)",Km [2] [µM]
"phosphorylierte CDD-32: CDD-32 (Urodilatin, ANF/CDD-95-126) phosphorylated according to Beispiel 1; Formel I with R = Aminosäuren 95-98 (TAPRSLRRSSCFGGRMDRIGAQSGLGCNSFRY; ends and bridges not checked; also: phosphorylated (phosphate group), site not given here; UniProt P01160 120-151, looked up, fragment)",deutlich geringeres Relaxationsvermögen,deutlich geringere Relaxation,
Arg¹⁰¹-Tyr¹²⁶,,,0.5
